How the values were obtained:
[1] = biological target: T1, human BRD4 bromodomain II (Homo sapiens, UniProt O60885); assay: Bromodomain binding assay (AlphaScreen), BRD4 BDII; details: AlphaScreen assay, Table C2; read-out: BRD4 BDII IC50
T1 construct: human BRD4 bromodomain II [based on Genbank NM_058243, residues 349-460]; host or cells: E. coli
Outline: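 AlphaScreen competition with biotinylated H4 peptide (aa 1-21, K5/K8/K12/K16Ac), using nickel-chelate acceptor and streptavidin donor beads. Targets were His6-BRD4 BDI (44-170) or BDII (349-460), with a 30 min compound preincubation over a 10-point 3-fold series. IC50 was fitted from percentage peptide binding.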

[2] = tested on: human SKM-1 acute myeloid leukemia cells; assay: SKM-1 antiproliferation cell-based assay (ATPlite); details: Homo sapiens, SKM-1, 96 h, SKM-1 antiproliferation assay, 4 days, Table C2
Outline: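 Log-phase cells in RPMI 1640/15% FBS were seeded at 34722 cells/mL and exposed for 4 days to nine-concentration DMSO serial dilutions in triplicate. Viability was read as ATP luminescence (ATPlite 1step), and IC50 values came from variable-slope non-linear regression.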

IC50 [1] | GI50 [2] | Structure (SMILES)
0.01 to 1 nM | 30 to 300 nM | CN[C@H]1CCCN(c2cc(-c3cc(F)cc(-c4ccc(-n5ccn(C)c5=O)c(Cl)c4)c3O)ccn2)C1 [Example 440, (S)-1-(3-chloro-5′-fluoro-2′-hydroxy-3′-(2-(3-(methylamino)piperidin-1-yl)pyridin-4-yl)-[1,1′-biphenyl]-4-yl)-3-methyl-1H-imidazol-2(3H)-one]
1 to 10 nM | 30 to 300 nM | CN1CCN(c2cc(-c3cc(F)cc(-c4ccc(N5CCN(C)C5=O)c(Cl)c4)c3O)ccn2)CC1 [Example 441, 1-(3-chloro-5′-fluoro-2′-hydroxy-3′-(2-(4-methylpiperazin-1-yl)pyridin-4-yl)-[1,1′-biphenyl]-4-yl)-3-methylimidazolidin-2-one]
0.01 to 1 nM | 0.3 to 30 nM | CC(=O)Nc1cc(-c2cc(F)cc(-c3ccc(-n4ccn(C)c4=O)c(Cl)c3)c2O)cc(N2CCNCC2)n1 [Example 442, N-(4-(3′-chloro-5-fluoro-2-hydroxy-4′-(3-methyl-2-oxo-2,3-dihydro-1H-imidazol-1-yl)-[1,1′-biphenyl]-3-yl)-6-(piperazin-1-yl)pyridin-2-yl)acetamide]
10 to 100 nM | 300 to 3000 nM | CN1CCN(c2ccc(-c3cc(F)cc(-c4ccnc(N5CCNC(C(F)(F)F)C5)c4)c3O)cc2Cl)C1=O (stereo not shown) [Example 444, 1-(3-chloro-5′-fluoro-2′-hydroxy-3′-(2-(3-(trifluoromethyl)piperazin-1-yl)pyridin-4-yl)-[1,1′-biphenyl]-4-yl)-3-methylimidazolidin-2-one]
1 to 10 nM | 300 to 3000 nM | Cn1ccn(-c2ccc(-c3cc(F)cc(-c4ccc(OC5CCNCC5)nc4)c3O)cc2Cl)c1=O [Example 445, 1-(3-chloro-5′-fluoro-2′-hydroxy-3′-(6-(piperidin-4-yloxy)pyridin-3-yl)-[1,1′-biphenyl]-4-yl)-3-methyl-1H-imidazol-2(3H)-one]
10 to 100 nM | 300 to 3000 nM | Cn1ccn(-c2c(Cl)cc(-c3cc(F)cc(-c4ccnc(N5CCNCC5)c4)c3O)cc2C#N)c1=O [Example 448, 5-chloro-5′-fluoro-2′-hydroxy-4-(3-methyl-2-oxo-2,3-dihydro-1H-imidazol-1-yl)-3′-(2-(piperazin-1-yl)pyridin-4-yl)-[1,1′-biphenyl]-3-carbonitrile]
1 to 10 nM | 300 to 3000 nM | CN1CCN(c2ccc(-c3cc(F)cc(-c4ccnc(N5CCNCC5=O)c4)c3O)cc2Cl)C1=O [Example 449, 1-(4-(3′-chloro-5-fluoro-2-hydroxy-4′-(3-methyl-2-oxoimidazolidin-1-yl)-[1,1′-biphenyl]-3-yl)pyridin-2-yl)piperazin-2-one]
1 to 10 nM | 30 to 300 nM | CN[C@H]1CCCN(c2cc(-c3cc(F)cc(-c4ccc(N5CCN(C)C5=O)c(Cl)c4)c3O)ccn2)C1 [Example 450]
0.01 to 1 nM | 0.3 to 30 nM | [2H]C([2H])([2H])n1ccn(-c2ccc(-c3cc(F)cc(-c4ccnc(N5CC[C@H](N)C5)c4)c3O)cc2Cl)c1=O [Example 451, (S)-1-(3′-(2-(3-aminopyrrolidin-1-yl)pyridin-4-yl)-3-chloro-5′-fluoro-2′-hydroxy-[1,1′-biphenyl]-4-yl)-3-deuteromethyl-1H-imidazol-2(3H)-one]
0.01 to 1 nM | 0.3 to 30 nM | [2H]C([2H])([2H])n1ccn(-c2ccc(-c3cc(F)cc(-c4ccnc(N5CCC[C@H](N)C5)c4)c3O)cc2Cl)c1=O [Example 452, (S)-1-(3′-(2-(3-aminopiperidin-1-yl)pyridin-4-yl)-3-chloro-5′-fluoro-2′-hydroxy-[1,1′-biphenyl]-4-yl)-3-deuteromethyl-1H-imidazol-2(3H)-one]
0.01 to 1 nM | 0.3 to 30 nM | [2H]C([2H])([2H])n1ccn(-c2ccc(-c3cc(F)cc(-c4ccnc(N5CCN[C@H](C)C5)c4)c3O)cc2Cl)c1=O [Example 453, (R)-1-(3-chloro-5′-fluoro-2′-hydroxy-3′-(2-(3-methylpiperazin-1-yl)pyridin-4-yl)-[1,1′-biphenyl]-4-yl)-3-deuteromethyl-1H-imidazol-2(3H)-one]
1 to 10 nM | 300 to 3000 nM | Cn1ccn(-c2ccc(-c3cc(F)cc(-c4ccnc(N5CCNC(C(F)(F)F)C5)c4)c3O)cc2Cl)c1=O (stereo not shown) [Example 454, 1-(3-chloro-5′-fluoro-2′-hydroxy-3′-(2-(3-(trifluoromethyl)piperazin-1-yl)pyridin-4-yl)-[1,1′-biphenyl]-4-yl)-3-methyl-1H-imidazol-2(3H)-one]
1 to 10 nM | 30 to 300 nM | Cn1ccn(-c2ccc(-c3cc(F)cc(-c4ccnc(N5CC6(CNC6)C5)c4)c3O)cc2Cl)c1=O [Example 455, 1-(3′-(2-(2,6-diazaspiro[3.3]heptan-2-yl)pyridin-4-yl)-3-chloro-5′-fluoro-2′-hydroxy-[1,1′-biphenyl]-4-yl)-3-methyl-1H-imidazol-2(3H)-one]
0.01 to 1 nM | 0.3 to 30 nM | [2H]C([2H])([2H])n1ccn(-c2ccc(-c3cc(F)cc(-c4ccnc(N5CCC[C@H](NC)C5)c4)c3O)cc2Cl)c1=O [Example 456, (S)-1-(3-chloro-5′-fluoro-2′-hydroxy-3′-(2-(3-(methylamrno)piperidin-1-yl)pyridin-4-yl)-[1,1′-biphenyl]-4-yl)-3-deuteromethyl-1H-imidazol-2(3H)-one]
1 to 10 nM | 0.3 to 30 nM | CN(C)[C@H]1CCCN(c2cc(-c3cc(F)cc(-c4ccc(-n5ccn(C)c5=O)c(Cl)c4)c3O)ccn2)C1 [Example 457, (S)-1-(3-chloro-3′-(2-(3-(dimethylamino)piperidin-1-yl)pyridin-4-yl)-5′-fluoro-2′-hydroxy-[1,1′-biphenyl]-4-yl)-3-methyl-1H-imidazol-2(3H)-one]
1 to 10 nM | 0.3 to 30 nM | CN1CCN(c2ccc(-c3cc(F)cc(-c4cc(N5CCNCC5)c5cn[nH]c5c4)c3O)cc2Cl)C1=O [Example 458, 1-(3-chloro-5′-fluoro-2′-hydroxy-3′-(4-(piperazin-1-yl)-1H-indazol-6-yl)-[1,1′-biphenyl]-4-yl)-3-methylimidazolidin-2-one]
1 to 10 nM | 0.3 to 30 nM | Cn1ccn(-c2ccc(-c3cc(F)cc(-c4cncc(N5CCC(N)CC5)c4)c3O)cc2Cl)c1=O [Example 459, 1-(3′-(5-(4-aminopiperidin-1-yl)pyridin-3-yl)-3-chloro-5′-fluoro-2′-hydroxy-[1,1′-biphenyl]-4-yl)-3-methyl-1H-imidazol-2(3H)-one]
1 to 10 nM | 0.3 to 30 nM | CN1CCN(c2ccc(-c3cc(F)cc(-c4cc(N5CCNCC5)c5cc[nH]c5c4)c3O)cc2Cl)C1=O [Example 460, 1-(3-chloro-5′-fluoro-2′-hydroxy-3′-(4-(piperazin-1-yl)-1H-indol-6-yl)-[1,1′-biphenyl]-4-yl)-3-methylimidazolidin-2-one]
0.01 to 1 nM | 0.3 to 30 nM | Cn1ccn(-c2ccc(-c3cc(F)cc(-c4cncc(N5CCC[C@H](N)C5)c4)c3O)cc2Cl)c1=O [Example 461, (S)-1-(3′-(5-(3-aminopiperidin-1-yl)pyridin-3-yl)-3-chloro-5′-fluoro-2′-hydroxy-[1,1′-biphenyl]-4-yl)-3-methyl-1,3-dihydro-2H-imidazol-2-one]
1 to 10 nM | 30 to 300 nM | Cn1ncn(-c2ccc(-c3cc(F)cc(-c4ccnc(N5CCNCC5)c4)c3O)cc2Cl)c1=O [Example 462, 4-(3-chloro-5′-fluoro-2′-hydroxy-3′-(2-(piperazin-1-yl)pyridin-4-yl)-[1,1′-biphenyl]-4-yl)-1-methyl-1H-1,2,4-triazol-5(4H)-one]

— US20250179059A1 (The Regents of the University of California, priority 2021, published 2025)
